The structures appear in SMILES notation.

This series can be described thus: Solubility in organic solvents at room temperature. The series is classed as physicochemical.

Turning to `CC(C)(c1ccc(O)cc1)c1ccc(N2C(=O)C=CC2=O)cc1` [2-(4'-hydroxyphenyl)-2-(4"-maleimidophenyl) propane], the “Solubility of 2-(4'-hydroxyphenyl)-2-(4"-maleimidophenyl) propane (at room temperature )” value (from here on “Solubility”) (Organic Solvent: Acetone) is 50 wt.% or higher; the “Solubility” value (Organic Solvent: Dimethylformamide) is given as 50 wt.% or higher; the “Solubility” value (Organic Solvent: Dioxane) is given as 36 wt.%; the “Solubility” value (Organic Solvent: Ethanol) was 11 wt.%; the “Solubility” value (Organic Solvent: Methanol) turned out to be 20 wt.%; the “Solubility” value (Organic Solvent: Methyl ethyl ketone) is reported as 46 wt.%. Where the note is “Organic Solvent: Tetrahydrofuran”, the “Solubility” value is 50 wt.% or higher.

The record behind these values is patent publication EP0051687A1, “Maleimides and process for the preparation of same” (MITSUI TOATSU CHEMICALS, Inc., priority 1980, dated 1982).
